From the supplement of paper PMC10307832

Experiments:
Experiment in all cases: relative viability (nuclei count vs DMSO), 5 days (fraction); higher = more cells survive
XMD14-99 + Luminespib = compound: CN1CCN(CC1)C2=CC(=C(C=C2)NC3=NC(=C(S3)C(=O)C4=C(C=CC=C4Cl)Cl)N)OC [XMD14-99] + CCNC(=O)c1noc(-c2cc(C(C)C)c(O)cc2O)c1-c1ccc(CN2CCOCC2)cc1 [Luminespib] (partner 0.01 µM)
Summary of the method: (§1)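 The day after seeding in 1536-well plates, lung cancer cell lines were treated by pin tool with a single drug, or with a fixed anchor-drug dose together with five library-drug doses (not always all listed) in √10 steps. After 5 days, a combined fix-and-stain solution (final 0.05% Triton X-100, 1% formaldehyde, 1 ug/ml Hoechst) was added. Nuclei counted on 4× images gave relative viability as treated counts over vehicle counts, reported as the median of duplicate plates.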

XMD14-99 + Crizotinib = compound: CN1CCN(CC1)C2=CC(=C(C=C2)NC3=NC(=C(S3)C(=O)C4=C(C=CC=C4Cl)Cl)N)OC [XMD14-99] + C[C@@H](Oc1cc(-c2cnn(C3CCNCC3)c2)cnc1N)c1c(Cl)ccc(F)c1Cl [Crizotinib] (partner 1 µM)
Summary of the method: as §1

XMD14-99 + Pemetrexed = compound: CN1CCN(CC1)C2=CC(=C(C=C2)NC3=NC(=C(S3)C(=O)C4=C(C=CC=C4Cl)Cl)N)OC [XMD14-99] + Nc1nc2[nH]cc(CCc3ccc(C(=O)N[C@@H](CCC(=O)O)C(=O)O)cc3)c2c(=O)[nH]1 [Pemetrexed] (partner 0.2 µM)
Summary of the method: as §1

AZD1208 + OSI-027 = compound: N[C@@H]1CCCN(c2c(/C=C3\SC(=O)NC3=O)cccc2-c2ccccc2)C1 [AZD1208] + COc1cccc2cc(-c3nc([C@H]4CC[C@H](C(=O)O)CC4)n4ncnc(N)c34)[nH]c12 [OSI-027] (partner 0.5 µM)
Summary of the method: as §1

Cell Line	relative viability (XMD14-99 + Luminespib; first compound 0.08 µM)	relative viability (XMD14-99 + Luminespib; first compound 0.8 µM)	relative viability (XMD14-99 + Luminespib; first compound 2.53 µM)	relative viability (XMD14-99 + Luminespib; first compound 8 µM)	relative viability (XMD14-99 + Crizotinib; first compound 0.08 µM)	relative viability (XMD14-99 + Crizotinib; first compound 0.8 µM)	relative viability (XMD14-99 + Crizotinib; first compound 2.53 µM)	relative viability (XMD14-99 + Crizotinib; first compound 8 µM)	relative viability (XMD14-99 + Pemetrexed; first compound 0.08 µM)	relative viability (XMD14-99 + Pemetrexed; first compound 0.8 µM)	relative viability (XMD14-99 + Pemetrexed; first compound 2.53 µM)	relative viability (XMD14-99 + Pemetrexed; first compound 8 µM)	relative viability (AZD1208 + OSI-027; first compound 0.08 µM)	relative viability (AZD1208 + OSI-027; first compound 0.253 µM)	relative viability (AZD1208 + OSI-027; first compound 0.8 µM)	relative viability (AZD1208 + OSI-027; first compound 2.53 µM)	relative viability (AZD1208 + OSI-027; first compound 8 µM)
201T	1	1.01	0.993	0.829	1.03	1.02	1.01	0.917	0.331	0.356	0.32	0.281	0.81	0.78	0.512	0.53	0.477
A549	–	–	–	–	0.593	0.728	0.705	0.452	–	–	–	–	–	–	–	–	–
A-427	1.02	1.07	0.875	0.617	0.83	0.746	0.614	0.658	0.952	0.946	0.892	0.645	0.453	0.543	0.469	0.41	0.378
ABC-1	0.511	0.7	0.806	0.382	1	1.07	1.04	0.802	–	–	–	–	0.417	0.444	0.487	0.377	0.436
BEN	0.377	0.419	0.271	0.285	0.789	0.718	0.761	0.647	0.747	0.794	0.845	0.492	0.301	0.254	0.278	0.294	0.238
CAL-12T	0.387	0.524	0.358	0.346	0.926	0.609	0.724	0.466	1.2	1.28	1.12	0.885	0.61	0.668	0.583	0.506	0.436
COR-L23	0.578	0.613	0.515	0.419	0.684	0.614	0.51	0.33	0.192	0.207	0.166	0.184	0.762	0.779	0.642	0.728	0.452
COR-L 105	0.693	0.845	0.778	0.466	0.709	0.88	0.721	0.444	1.14	0.855	0.965	0.788	0.613	0.745	0.542	–	0.736
Calu-6	–	–	–	–	0.807	0.756	0.747	0.513	–	–	–	–	–	–	–	–	–
ChaGo-K-1	0.565	0.599	0.609	0.513	1.1	1.14	1.19	0.92	0.257	0.256	0.263	0.233	0.579	0.546	0.49	0.421	0.402
EBC-1	–	–	–	–	0.232	0.19	0.188	0.156	–	–	–	–	–	–	–	–	–
EKVX	0.905	0.814	0.768	0.802	0.976	0.808	0.898	0.741	0.366	0.338	0.328	0.362	0.674	0.651	0.634	0.673	0.648
EMC-BAC-2	1.19	1.13	0.99	1.01	0.801	0.775	0.743	0.62	0.437	0.449	0.403	0.368	0.364	0.37	0.346	0.296	0.315
EPLC-272H	0.658	0.512	0.417	0.195	0.923	0.813	1.04	0.927	0.406	0.335	0.324	0.291	0.255	0.289	0.276	0.247	0.281
H3255	0.958	0.934	0.781	0.614	0.831	0.64	0.757	0.597	0.558	0.526	0.518	0.433	0.506	0.54	0.429	0.491	0.543
HARA	0.311	0.685	0.581	0.207	0.994	0.938	0.864	0.646	0.21	0.29	0.265	0.237	0.467	0.497	0.468	0.433	0.277
HCC-15	0.412	0.258	0.214	0.256	0.773	0.816	0.807	0.605	0.208	0.218	0.221	0.209	0.63	0.673	0.491	0.467	0.437
HCC-44	1.01	0.968	1.07	0.753	0.828	0.762	0.855	0.765	0.648	0.65	0.63	0.627	0.504	0.496	0.512	0.331	0.485
